According to patent US20240368157A1, “FORMS AND COMPOSITIONS OF A JAK2 INHIBITOR” (Ajax Therapeutics, Inc., priority 2023, published 2024):
≈ marks a conversion by molar mass, not a printed value. Read-outs that look alike come from different tables or passages of the source. Marks after values point to notes of the source that are not given here. Values belong to the compound of their own block, whether it stands above or below them.

Legend:
[1] = Approximate solubility estimates (solvent incremental addition, visual observation); assay type: physicochemical; conditions: for solubility: thermodynamic from solid
Procedure: Approximate solubility estimates of Compound 1 Lot I were ascertained using the solvent incremental addition method and visual observation (Table 2.1). […] Approximate solubilities were calculated based on the total solvent used to achieve a solution, as judged by visual observation. Actual solubilities may be greater because of the volume of solvent portions utilized or a slow rate of dissolution. […] If dissolution occurred at the first aliquot, the value was reported as “>”

[2] = Exposure experiments at high relative humidity; assay type: physicochemical; conditions: RT, 17 days
Procedure: In a series of exposure experiments, Compound 1 Lot I was exposed to high relative humidity. Generally, approx. 50 mg Compound 1 was transferred to vials, and the vials were placed open in chambers containing saturated aqueous solutions of various salts, which are known to generate various relative humidity levels in the chambers. See, e.g., “Standard Practice for Maintaining Constant Relative Humidity by Means of Aqueous Solutions” ASTM Standard E 104-85 (1996); “Humidity Fixed Points of Binary Saturated Aqueous Solutions” Greenspan, L. J. Res. Natl. Bur. Stand., Sect. A […], 81A, 89-96; “Saturated Salt Solutions for Maintaining Specified Relative Humidities” Nyqvist, H. E. Int. J. Pharma. Technol. Prod. Manuf. 1983, 4, 47-48; and “Evaluation of Relative Humidity Values for Saturated Aqueous Salt Solutions Using Osmotic Coefficients Between 50 and 100° C.” Moisture Humidity, Proc. Int. Symp. 1985, 577-96.

[3] = Slurry in water at ambient temperature (XRPD); assay type: physicochemical; conditions: 5 days
[4] = Stability stress studies on Form B (RH/temperature exposure, XRPD); assay type: physicochemical
Procedure: Stability stress studies were conducted on Form B by exposing samples to three conditions: 57.5% RH/RT; 97.3% RH/RT, and 75% RH/40° C. and collecting XRPD data at two time points (14 and 28 days).

[5] = Interconversion slurry experiments; conditions: interconversion slurries, ambient temperature to 65° C.
Procedure: Mixtures of Form H and Form I with Form B were utilized in these interconversion slurry experiments. […] The interconversion slurries were performed at ambient and elevated (65° C.) temperatures in various solvents and solvent mixtures.

[6] = Dynamic vapor sorption (DVS); assay type: physicochemical; conditions: for Hysteresis: in % (unit assumed); for weight gain during sorption: DVS; for XRPD pattern of the post-DVS sample: after DVS experiment
Procedure: Moisture sorption/desorption data were collected on a Surface Measurement System DVS Intrinsic instrument. Samples were not dried prior to analysis. Sorption and desorption data were collected over a range from 5% to 95% RH to 5% RH at 10% RH increments under a nitrogen purge. The equilibrium criterion used for analysis was less than 0.0100% weight change in 5 minutes with a maximum equilibration time of 3 hours. Data were not corrected for the initial moisture content of the samples.

SMILES: CN(C)C(=O)Nc1cc(Oc2cnc3nc(Nc4cc(C(F)(F)F)cn(C)c4=O)n(C)c3c2C#N)ccn1 [Compound 1 Lot II]
- solubility ([1]; 1-BuOH:H2O (90:10), 80 °C, organic solvent or mixture, 1-BuOH:H2O (90:10), aw = 0.82, 80° C., read-out: Solubility): 4000 µg/mL (≈ 7580 µM)
- solubility ([1]; 1-BuOH:H2O (96:4), 85 °C, organic solvent or mixture, 1-BuOH:H2O (96:4), aw = 0.49, 85° C., read-out: Solubility): 1000 µg/mL (≈ 1900 µM)

SMILES: CN(C)C(=O)Nc1cc(Oc2cnc3nc(Nc4cc(C(F)(F)F)cn(C)c4=O)n(C)c3c2C#N)ccn1 [Compound 1 Lot I]
- XRPD Result ([2]; 75% RH): Forms B + C + larger peaks
- weight gain ([2]; 75% RH): 0.56% weight gain
- XRPD Result ([2]; 97% RH): Forms B + C + peaks
- weight gain ([2]; 97% RH): 0.71% weight gain
- solubility ([1]; 2-butanone (MEK), organic solvent or mixture, 2-butanone (MEK), ambient, read-out: Solubility): 1000 µg/mL (≈ 1900 µM)
- Solubility (mg/mL) ([1]; AcOH, ambient): >59^b mg/mL
- solubility ([1]; AcOH:H2O (20:80), aqueous with cosolvent or surfactant or cyclodextrin, AcOH:H2O (20:80), aw = 0.94, ambient, read-out: Solubility): 1000 µg/mL (≈ 1900 µM)
- solubility ([1]; AcOH:H2O (50:50), aqueous with cosolvent or surfactant or cyclodextrin, AcOH:H2O (50:50), aw = 0.84, ambient, read-out: Solubility): 14000 µg/mL (≈ 26500 µM)
- solubility ([1]; AcOH:H2O (85:15), organic solvent or mixture, AcOH:H2O (85:15), aw = 0.51, ambient, read-out: Solubility): > 51000 µg/mL
- solubility ([1]; CHCl3, organic solvent or mixture, CHCl3, ambient, read-out: Solubility): 2000 µg/mL (≈ 3790 µM)
- solubility ([1]; DMA, organic solvent or mixture, DMA, ambient, read-out: Solubility): 8000 µg/mL (≈ 15200 µM)
- solubility ([1]; DMSO, organic solvent or mixture, DMSO, ambient, read-out: Solubility): 6000 µg/mL (≈ 11400 µM)
- solubility ([1]; EtOAc, organic solvent or mixture, EtOAc, ambient, read-out: Solubility): < 1000 µg/mL
- solubility ([1]; EtOH:H2O (90:10), organic solvent or mixture, EtOH:H2O (90:10), aw = 0.49, ambient, read-out: Solubility): 1000 µg/mL (≈ 1900 µM)
- solubility ([1]; MIBK, organic solvent or mixture, MIBK, ambient, read-out: Solubility): < 1000 µg/mL
- solubility ([1]; MeCN, organic solvent or mixture, MeCN, ambient, read-out: Solubility): < 1000 µg/mL
- solubility ([1]; MeOH, organic solvent or mixture, MeOH, ambient, read-out: Solubility): < 1000 µg/mL
- solubility ([1]; MeOH:CHCl3 (50:50), organic solvent or mixture, MeOH:CHCl3 (50:50), ambient, read-out: Solubility): < 1000 µg/mL
- solubility ([1]; MeOH:DCM (1:3), organic solvent or mixture, MeOH:DCM (1:3), ambient, read-out: Solubility): 37000 µg/mL (≈ 70100 µM)
- solubility ([1]; MeOH:H2O (90:10), organic solvent or mixture, MeOH:H2O (90:10), aw = 0.29, ambient, read-out: Solubility): 1000 µg/mL (≈ 1900 µM)
- solubility ([1]; NMP, organic solvent or mixture, NMP, ambient, read-out: Solubility): 8000 µg/mL (≈ 15200 µM)
- solubility ([1]; TFE, organic solvent or mixture, TFE, ambient, read-out: Solubility): 17000 µg/mL (≈ 32200 µM)
- solubility ([1]; THF, organic solvent or mixture, THF, ambient, read-out: Solubility): < 1000 µg/mL
- solubility ([1]; acetic acid (AcOH), organic solvent or mixture, AcOH, ambient, read-out: Solubility): > 59000 µg/mL
- solubility ([1]; acetone, organic solvent or mixture, Acetone, ambient, read-out: Solubility): 1000 µg/mL (≈ 1900 µM)
- solubility ([1]; acetone:H2O (90:10), organic solvent or mixture, acetone:H2O (90:10), aw = 0.69, ambient, read-out: Solubility): 2000 µg/mL (≈ 3790 µM)
- solubility ([1]; i-PrOH, organic solvent or mixture, i-PrOH, ambient, read-out: Solubility): < 1000 µg/mL
- solubility ([1]; organic solvent or mixture, 10% water added to acetone, ethanol, and methanol, ambient, read-out: solubility after addition of 10% water): 1000 to 2000 µg/mL (≈ 1900 to 3790 µM)
- solubility ([1]; organic solvent or mixture, in acetone, chloroform, MEK, and aprotic solvents DMSO, DMAc, and NMP, ambient, read-out: limited solubility): 1000 to 8000 µg/mL (≈ 1900 to 15200 µM)
- solubility ([1]; toluene, organic solvent or mixture, toluene, ambient, read-out: Solubility): < 1000 µg/mL
- solubility ([1]; water, H2O, ambient, read-out: Solubility): < 1000 µg/mL

SMILES: CN(C)C(=O)Nc1cc(Oc2cnc3nc(Nc4cc(C(F)(F)F)cn(C)c4=O)n(C)c3c2C#N)ccn1 [Form B]
- solid form after slurry in water (XRPD) [3]: remained unchanged
- XRPD Result ([4]; 57.5% RH/RT, 14 days): Form B
- XRPD Result ([4]; 57.5% RH/RT, 28 days): Form B
- stability under stress conditions ([4]; 57.5% RH/RT, 97.3% RH/RT, 75% RH/40° C., 14 and 28 days): stable at the tested stress conditions
- XRPD Result ([4]; 75.3% RH/40° C., 14 days): Form B
- XRPD Result ([4]; 75.3% RH/40° C., 28 days): Form B
- XRPD Result ([4]; 97.3% RH/RT, 14 days): Form B
- XRPD Result ([4]; 97.3% RH/RT, 28 days): Form B
- relative stability of anhydrous forms [5]: likely the most stable anhydrous form under the tested conditions
- Desorp Mass Change (%) ([6]; DVS cycle 1, target RH 5%): −0.0297%
- Sorp Mass Change (%) ([6]; DVS cycle 1, target RH 5%): 0.0003%
- Desorp Mass Change (%) ([6]; DVS cycle 1, target RH 15%): 0.0109%
- Sorp Mass Change (%) ([6]; DVS cycle 1, target RH 15%): 0.0327%
- Hysteresis ([6]; DVS cycle 1, target RH 15%): −0.0218
- Desorp Mass Change (%) ([6]; DVS cycle 1, target RH 25%): 0.048%
- Sorp Mass Change (%) ([6]; DVS cycle 1, target RH 25%): 0.0627%
- Hysteresis ([6]; DVS cycle 1, target RH 25%): −0.0147
- Desorp Mass Change (%) ([6]; DVS cycle 1, target RH 35%): 0.0903%
- Sorp Mass Change (%) ([6]; DVS cycle 1, target RH 35%): 0.0974%
- Hysteresis ([6]; DVS cycle 1, target RH 35%): −0.0071
- Desorp Mass Change (%) ([6]; DVS cycle 1, target RH 45%): 0.1586%
- Sorp Mass Change (%) ([6]; DVS cycle 1, target RH 45%): 0.1439%
- Hysteresis ([6]; DVS cycle 1, target RH 45%): 0.0147
- Desorp Mass Change (%) ([6]; DVS cycle 1, target RH 55%): 0.2045%
- Sorp Mass Change (%) ([6]; DVS cycle 1, target RH 55%): 0.1803%
- Hysteresis ([6]; DVS cycle 1, target RH 55%): 0.0241
- Desorp Mass Change (%) ([6]; DVS cycle 1, target RH 65%): 0.2463%
- Sorp Mass Change (%) ([6]; DVS cycle 1, target RH 65%): 0.2227%
- Hysteresis ([6]; DVS cycle 1, target RH 65%): 0.0235
- weight gain during sorption ([6]; 5-95% RH): 0.43%
- XRPD pattern of the post-DVS sample [6]: consistent with Form B
- hygroscopicity ([6]; judged from DVS sorption/desorption): non-hygroscopic

The next lines start with results.

- Desorp Mass Change (%) ([6]; DVS cycle 1, target RH 5%): 0.028%
- Sorp Mass Change (%) ([6]; DVS cycle 1, target RH 5%): 0.005%
- Desorp Mass Change (%) ([6]; DVS cycle 1, target RH 15%): 1.354%
- Sorp Mass Change (%) ([6]; DVS cycle 1, target RH 15%): 1.314%
- Hysteresis ([6]; DVS cycle 1, target RH 15%): 0.040
- Desorp Mass Change (%) ([6]; DVS cycle 1, target RH 25%): 1.757%
- Sorp Mass Change (%) ([6]; DVS cycle 1, target RH 25%): 1.741%
- Hysteresis ([6]; DVS cycle 1, target RH 25%): 0.016
- Desorp Mass Change (%) ([6]; DVS cycle 1, target RH 35%): 1.927%
- Sorp Mass Change (%) ([6]; DVS cycle 1, target RH 35%): 1.912%
- Hysteresis ([6]; DVS cycle 1, target RH 35%): 0.015
- Desorp Mass Change (%) ([6]; DVS cycle 1, target RH 45%): 2.061%
- Sorp Mass Change (%) ([6]; DVS cycle 1, target RH 45%): 2.017%
- Hysteresis ([6]; DVS cycle 1, target RH 45%): 0.044
- Desorp Mass Change (%) ([6]; DVS cycle 1, target RH 55%): 2.161%
- Sorp Mass Change (%) ([6]; DVS cycle 1, target RH 55%): 2.100%
- Hysteresis ([6]; DVS cycle 1, target RH 55%): 0.061
- Desorp Mass Change (%) ([6]; DVS cycle 1, target RH 65%): 2.240%
- Sorp Mass Change (%) ([6]; DVS cycle 1, target RH 65%): 2.178%
- Hysteresis ([6]; DVS cycle 1, target RH 65%): 0.061
- Desorp Mass Change (%) ([6]; DVS cycle 1, target RH 75%): 2.323%
- Sorp Mass Change (%) ([6]; DVS cycle 1, target RH 75%): 2.262%
- Hysteresis ([6]; DVS cycle 1, target RH 75%): 0.061
- Desorp Mass Change (%) ([6]; DVS cycle 1, target RH 85%): 2.437%
- Sorp Mass Change (%) ([6]; DVS cycle 1, target RH 85%): 2.375%
- Hysteresis ([6]; DVS cycle 1, target RH 85%): 0.062
- Desorp Mass Change (%) ([6]; DVS cycle 1, target RH 95%): 2.620%
- Sorp Mass Change (%) ([6]; DVS cycle 1, target RH 95%): 2.620%
- weight gain during sorption ([6]; 5-25% RH): 1.74%
- weight gain during sorption ([6]; 5-95% RH): 2.6%
SMILES: CN(C)C(=O)Nc1cc(Oc2cnc3nc(Nc4cc(C(F)(F)F)cn(C)c4=O)n(C)c3c2C#N)ccn1 [Form C]
- XRPD pattern of the post-DVS sample [6]: consistent with Form C with slight peak shifting

- relative stability of anhydrous forms ([5]; listed as Compound 1 Form I): metastable form with respect to Form B
SMILES: CN(C)C(=O)Nc1cc(Oc2cnc3nc(Nc4cc(C(F)(F)F)cn(C)c4=O)n(C)c3c2C#N)ccn1 [Form I]
